# Source: publication PMC12212627, “Machine Learning-Based Virtual Screening of Antibacterial Agents against Methicillin-Susceptible and Resistant Staphylococcus aureus” (Journal of Chemical Information and Modeling, 2024)
# Tests used:
# [1] = test system: S. aureus (ATCC n° 29213), MSSA; test: Broth microdilution (CLSI): screening at 100 μM and MIC, MSSA; assay type: cell-based, Staphylococcus aureus; details: at 100 uM, Table S4
# Procedure: (§1) E. coli (ATCC n° […]) – a TEM-1 β-lactamase producing strain, S. aureus (ATCC n° 29213) – herein referred to as MSSA, MRSA (ATCC n° 43300), and two clinical strains of MRSA (n° 5749 and 6154) were used in the biological assays. The antibacterial activity and minimal inhibitory concentration (MIC) of the screened compounds were evaluated with the broth microdilution method in 96-well microplates, according to the Clinical and Laboratory Standards Institute (CLSI) protocol. Initially, compounds were evaluated in a screening assay to identify promising hits. The compounds were dissolved in dimethyl sulfoxide (DMSO) and then diluted in Mueller Hinton broth (MHB; Oxoid, Thermo Scientific, U.K.) to a concentration of 200 μM. After the addition of 100 μL to each well, the same volume of bacterial suspension containing 10^5 CFU/mL was added to each of the previous solutions, resulting in a final compound concentration of 100 μM. A viability control (bacterial suspension only), inhibition controls (MHB containing five times the MIC of penicillin G for MSSA, vancomycin for MRSA strains, and streptomycin for E. coli), a sterility control (medium only), and a vehicle control (DMSO 2% v/v) were included in each assay microplate. After 24 h of incubation at 37 °C, the microplates were visually inspected for inhibition of bacterial growth, and the absorbance at 600 nm of each well was read using a microplate reader spectrophotometer (VersaMax, Molecular Devices, CA). The percentage of growth inhibition was calculated as the percentage of growth reduction compared with the vehicle control. Wells showing no visual bacterial growth (no turbidity) were considered hits. The MIC of the promising compounds in the initial screening were tested as previously described, with a serial dilution of each compound (100–1.56 μM). All conditions were tested in triplicate from at least three independent assays.
# MRSA (ATCC n° 43300) = test: Broth microdilution (CLSI): screening at 100 μM and MIC, MRSA reference strain; assay type: cell-based, Staphylococcus aureus; details: at 100 uM, Table S4
# Procedure: as §1
# [2] = test system: clinical strain of MRSA n° 5749; test: Broth microdilution (CLSI): screening at 100 μM and MIC, MRSA clinical strain 5749; assay type: cell-based, Staphylococcus aureus; details: at 100 uM, Table S4
# Procedure: as §1
# [3] = test system: clinical strain of MRSA n° 6154; test: Broth microdilution (CLSI): screening at 100 μM and MIC, MRSA clinical strain 6154; assay type: cell-based, Staphylococcus aureus; details: at 100 uM, Table S4
# Procedure: as §1
# [4] = test system: E. coli (ATCC 35218), TEM-1 β-lactamase producing strain; test: Broth microdilution (CLSI): screening at 100 μM and MIC, E. coli; assay type: cell-based; details: at 100 uM, Table S4
# Procedure: as §1
# MSSA and MRSA strains = test: Broth microdilution, results summed up over MSSA and MRSA strains; assay type: cell-based, Staphylococcus aureus; details: tested compounds of Supporting Table S4, 100 μM
# Procedure: as §1
SMILES,Percentage of growth inhibition MSSA (ATCC 29123) [1] [%],Percentage of growth inhibition MRSA (ATCC 43300) (MRSA (ATCC n° 43300)) [%],Percentage of growth inhibition MRSA (5749) [2] [%],Percentage of growth inhibition MRSA (6154) [3] [%],Percentage of growth inhibition E. coli (ATCC 35218) [4] [%],antibacterial activity (in words) (MSSA and MRSA strains)
CC(=O)OC1C(C)OC(n2cc(COC3=CC(=O)c4ccccc4C3=O)nn2)C(OC(C)=O)C1OC(C)=O (centres unmarked) [S33],0,0,0,0,0,inactive
CC(C)=CCC1=C(NCC(=O)O)C(=O)c2ccccc2C1=O [S34],0,0,0,0,0,
C#CCOC1=C(CC=C(C)C)C(=O)c2ccccc2C1=O [S35],0,0,0,0,0,
O=C(NC(Cc1ccc(O)cc1)C(=O)O)OCc1ccccc1 (centres unmarked) [S42],0,0,0,0,0,
NC(=O)CC(NC(=O)OCc1ccccc1)C(=O)O (centres unmarked) [S43],0,0,0,0,0,
NCCNC(=O)c1cc2ccccc2[nH]1 [S45],0,0,0,0,0,
OCCNCc1cc2ccccc2[nH]1 [S46],0,0,0,0,0,
CCCNC(=O)c1cc2ccccc2[nH]1 [S47],0,0,0,0,0,
O=C(NCCO)c1cc2ccccc2[nH]1 [S48],0,0,0,0,0,
O=C(NCCCN1CCOCC1)c1cc2ccccc2[nH]1 [S49],0,0,0,0,0,
O=c1cc(-c2ccc(O)c(O)c2)oc2c(C3OC(CO)C(O)C(O)C3O)c(O)cc(O)c12 (centres unmarked) [S54],0,0,0,0,0,
